# Assay results reported in US11078204B2, “Heterocyclic derivatives as PI3K inhibitors” (Incyte Corporation, priority 2018, dated 2021).
# pIC50: −log10 of the molar value. Counter-ions that a name gives are not always drawn.
# Legend:
# [1] = target: PI3Kδ (p110δ/p85α) Recombinant Human Protein (Homo sapiens (Human), UniProt O00329); assay: PI3Kδ Scintillation Proximity Assay; assay type: biochemical; conditions: 20 μM PIP2, 2 μM ATP, 3.4 nM PI3Kδ, 120 min
# From the text: Example C. PI3Kδ Scintillation Proximity Assay
# (§1) [γ-^33P]ATP (10 mCi/mL) and Wheat Germ Agglutinin (WGA) YSi SPA Scintillation Beads was purchased from Perkin Elmer (Waltham, Mass.). Lipid kinase substrate, D-myo-Phosphatidylinositol 4,5-bisphosphate (PtdInS(4,5)P2)D (+)-sn-1,2-di-O-octanoylglyceryl, 3-O-phospho linked (PIP2), CAS 204858-53-7, was purchased from Echelon Biosciences (Salt Lake City, Utah). PI3Kδ (p110δ/p85α) Recombinant Human Protein was purchased from Eurofins (St Charles, Mo.). ATP, MgCl2, DTT, EDTA, MOPS and CHAPS were purchased from Sigma Aldrich (St. Louis, Mo.).
# (§2) The kinase reaction was conducted in polystyrene 384-well Greiner Bio-one white plate from Thermo Fisher Scientific in a final volume of 25 μL. Inhibitors were first diluted serially in DMSO and added to the plate wells before the addition of other reaction components. The final concentration of DMSO in the assay was 2%. The PI3Kδ assay was carried out at room temperature in 20 mM MOPS, pH 6.7, 10 mM MgCl2, 5 mM DTT and CHAPS 0.03%. Reactions were initiated by the addition of ATP, the final reaction mixture consisted of 20 μM PIP2, 2 μM ATP, 0.5 μCi [γ-^33P]ATP, 3.4 nM PI3Kδ. Reactions were incubated for 120 min and terminated by the addition of 40 μL SPA beads suspended in quench buffer: 163 mM potassium phosphate pH 7.8, 20% glycerol, 25 mM EDTA. The final concentration of SPA beads is 1.0 mg/mL. After the plate sealing, plates were shaken overnight at room temperature and centrifuged at 1500 rpm for 10 min, the radioactivity of the product was determined by scintillation counting on Topcount (PerkinElmer). IC50 determination was performed by fitting the curve of percent of the solvent control activity versus the log of the inhibitor concentration using the GraphPad Prism 6.0 software.
# [2] = target: PI3Kγ (p110γ) Recombinant Human Protein (Homo sapiens (Human), UniProt P48736); assay: PI3K-γ Scintillation Proximity Assay; assay type: biochemical; conditions: 20 μM PIP2, 2 μM ATP, 13 nM PI3Kγ, 120 min
# From the text: Example B. PI3K-γ Scintillation Proximity Assay
# as §1, with “PI3Kγ (p110γ)” for “PI3Kδ (p110δ/p85α)”, “Life technology (Grand Island, N.Y.).” for “Eurofins (St Charles, Mo.).”
# as §2, with “PI3Kγ” for “PI3Kδ”, “[γ-^33p]ATP, 13” for “[γ-^33P]ATP, 3.4”, “PI3Kγ.” for “PI3Kδ.”
# [3] = test system: Phosphorylated Ribosomal Protein S6 (RPS6) in THP-1 cells; assay: THP-1 RPS6 ELISA Assay; assay type: cell-based; conditions: Homo sapiens, 2 hours compound, 10 nM MCP-1 for 15 minutes, Phospho-RPS6 ELISA, read-out: PI3Kγ_THP1_RPS6_ELISA IC50
# Method: Example A. THP-1 RPS6 ELISA Assay To measure the Phosphorylated Ribosomal Protein S6 (RPS6) in cell lysates, THP-1 cells (Human Acute Monocytic Leukemia) are purchased from ATCC (Manassas, Va.) and maintained in RPMI with 10% FBS (Gibco/Life Technologies, Carlsbad, Calif.). For the assay, THP-1 cells are serum starved overnight in RPMI, then plated in RPMI (2×10^5 cells/well in 90 μL) into 96-well flat-bottom tissue culture treated plates (Corning, Corning, N.Y.), in the presence or absence of a concentration range of test compounds. Covered plates are incubated for 2 hours at 37° C., 5% CO2 then treated with or without 10 nM MCP-1 (MYBioSource, San Diego, Calif.) for 15 minutes at 37° C., 5% CO2. Plates are centrifuged at 1600 RPM and supernatants are removed. Cells are lysed in Lysis Buffer (Cell Signaling, Danvers, Mass.) with Protease Inhibitor (Calbiochem/EMD, Germany), PMSF (Sigma, St Louis Mo.), HALTS (Thermo Fisher, Rockford, Ill.) for 30 min on wet ice. Cell lysates are frozen at −80° C. before testing. The lysates are tested in the Human/Mouse/Rat Phospho-RPS6 ELISA (R&D Systems, Inc. Minn, Minn.). The plate is measured using a microplate reader (SpectraMax M5-Molecular Devices, LLC Sunnyvale, Calif.) set to 450 nm with a wavelength correction of 540. IC50 determination is performed by fitting the curve of inhibitor percent inhibition versus the log of the inhibitor concentration using the GraphPad Prism 5.0 software.
# Chain of PI3Kδ (p110δ/p85α) Recombinant Human Protein (O00329 whole entry): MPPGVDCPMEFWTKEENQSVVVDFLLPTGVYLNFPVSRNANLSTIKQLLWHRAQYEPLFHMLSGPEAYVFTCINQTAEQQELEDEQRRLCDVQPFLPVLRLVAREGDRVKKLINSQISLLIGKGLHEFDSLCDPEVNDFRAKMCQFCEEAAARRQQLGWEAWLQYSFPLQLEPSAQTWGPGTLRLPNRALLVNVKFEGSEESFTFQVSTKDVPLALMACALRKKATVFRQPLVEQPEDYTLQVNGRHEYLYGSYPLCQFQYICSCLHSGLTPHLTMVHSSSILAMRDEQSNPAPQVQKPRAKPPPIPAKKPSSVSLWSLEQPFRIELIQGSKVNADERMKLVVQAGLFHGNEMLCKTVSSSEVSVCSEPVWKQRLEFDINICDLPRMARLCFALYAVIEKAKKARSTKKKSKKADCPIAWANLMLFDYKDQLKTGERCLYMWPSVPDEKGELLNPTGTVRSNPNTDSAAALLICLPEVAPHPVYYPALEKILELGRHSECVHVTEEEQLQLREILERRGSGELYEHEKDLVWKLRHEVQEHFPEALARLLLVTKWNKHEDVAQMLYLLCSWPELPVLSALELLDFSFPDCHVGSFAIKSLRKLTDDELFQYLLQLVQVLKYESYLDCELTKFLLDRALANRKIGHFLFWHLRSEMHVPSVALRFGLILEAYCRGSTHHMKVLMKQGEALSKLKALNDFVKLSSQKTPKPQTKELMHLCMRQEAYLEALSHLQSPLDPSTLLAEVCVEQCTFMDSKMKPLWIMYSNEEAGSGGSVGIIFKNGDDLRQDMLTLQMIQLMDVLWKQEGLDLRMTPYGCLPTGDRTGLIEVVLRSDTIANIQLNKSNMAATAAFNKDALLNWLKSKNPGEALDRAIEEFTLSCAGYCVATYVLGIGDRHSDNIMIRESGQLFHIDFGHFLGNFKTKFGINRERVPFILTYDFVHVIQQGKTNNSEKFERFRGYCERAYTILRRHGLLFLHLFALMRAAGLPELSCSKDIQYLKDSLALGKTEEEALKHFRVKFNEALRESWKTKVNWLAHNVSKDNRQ
# Chain of PI3Kδ (p110δ/p85α) Recombinant Human Protein (P27986 whole entry partner): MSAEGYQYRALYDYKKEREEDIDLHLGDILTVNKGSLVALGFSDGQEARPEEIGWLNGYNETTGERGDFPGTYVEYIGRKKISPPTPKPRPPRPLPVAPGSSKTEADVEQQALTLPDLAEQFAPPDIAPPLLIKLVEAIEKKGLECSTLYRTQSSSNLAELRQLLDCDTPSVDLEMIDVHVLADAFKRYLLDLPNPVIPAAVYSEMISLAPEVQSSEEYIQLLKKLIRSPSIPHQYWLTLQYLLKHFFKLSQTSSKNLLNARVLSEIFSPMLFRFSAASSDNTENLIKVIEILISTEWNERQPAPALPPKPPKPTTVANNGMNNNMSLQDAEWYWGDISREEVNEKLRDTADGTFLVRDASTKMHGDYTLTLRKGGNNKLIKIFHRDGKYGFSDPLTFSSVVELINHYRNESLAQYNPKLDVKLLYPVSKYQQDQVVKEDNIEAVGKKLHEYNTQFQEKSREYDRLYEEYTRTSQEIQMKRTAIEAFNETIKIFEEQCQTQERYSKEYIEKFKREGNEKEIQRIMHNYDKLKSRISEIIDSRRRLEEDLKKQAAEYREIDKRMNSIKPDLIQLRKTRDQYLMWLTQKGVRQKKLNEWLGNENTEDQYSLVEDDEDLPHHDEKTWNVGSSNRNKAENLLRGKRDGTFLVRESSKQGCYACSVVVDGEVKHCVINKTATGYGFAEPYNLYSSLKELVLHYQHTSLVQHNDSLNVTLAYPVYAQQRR
# Chain of PI3Kγ (p110γ) Recombinant Human Protein (P48736 whole entry): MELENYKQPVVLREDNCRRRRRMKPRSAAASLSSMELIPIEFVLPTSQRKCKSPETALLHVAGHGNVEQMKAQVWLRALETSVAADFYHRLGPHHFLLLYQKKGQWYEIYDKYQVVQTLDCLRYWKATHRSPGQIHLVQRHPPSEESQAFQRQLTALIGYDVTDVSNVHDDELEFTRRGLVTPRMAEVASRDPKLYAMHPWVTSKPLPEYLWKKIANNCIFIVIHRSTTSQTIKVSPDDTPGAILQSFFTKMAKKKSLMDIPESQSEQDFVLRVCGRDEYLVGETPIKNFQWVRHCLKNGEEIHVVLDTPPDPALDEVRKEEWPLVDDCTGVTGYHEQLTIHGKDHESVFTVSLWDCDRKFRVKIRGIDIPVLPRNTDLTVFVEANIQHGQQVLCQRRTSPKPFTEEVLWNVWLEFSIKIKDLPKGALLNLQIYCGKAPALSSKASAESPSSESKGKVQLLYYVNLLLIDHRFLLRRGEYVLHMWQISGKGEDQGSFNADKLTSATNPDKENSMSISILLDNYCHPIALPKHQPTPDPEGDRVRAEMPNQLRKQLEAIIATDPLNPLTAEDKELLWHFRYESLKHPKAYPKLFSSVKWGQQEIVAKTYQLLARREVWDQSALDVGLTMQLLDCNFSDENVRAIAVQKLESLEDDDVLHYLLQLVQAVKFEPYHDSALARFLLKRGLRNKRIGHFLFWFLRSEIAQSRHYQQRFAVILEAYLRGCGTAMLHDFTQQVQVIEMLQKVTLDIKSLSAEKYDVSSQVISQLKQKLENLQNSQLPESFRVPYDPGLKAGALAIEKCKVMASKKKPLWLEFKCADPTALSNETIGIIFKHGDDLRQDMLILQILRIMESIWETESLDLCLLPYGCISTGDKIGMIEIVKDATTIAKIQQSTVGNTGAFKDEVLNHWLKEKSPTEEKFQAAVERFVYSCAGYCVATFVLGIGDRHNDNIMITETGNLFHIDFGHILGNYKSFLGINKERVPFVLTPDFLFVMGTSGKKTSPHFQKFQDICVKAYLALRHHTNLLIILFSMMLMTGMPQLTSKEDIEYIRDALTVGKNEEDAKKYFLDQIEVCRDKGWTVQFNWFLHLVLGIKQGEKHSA
Structure (SMILES),pIC50 [1],pIC50 [2],pIC50 [3]
"Cc1cc(-c2cnc3c(N)ncnn23)cc2cn(C(C)C3CC3)nc12 (racemic) [Example 18, 7-(2-(1-Cyclopropylethyl)-7-methyl-2H-indazol-5-yl)imidazo[2,1-f][1,2,4]triazin-4-amine trifluoroacetate salt]",≤ 5.70,≥ 7.00,≤ 6.00
"C[C@@H](C1CC1)N1Cc2cc(-c3cnc4c(N)nc(C(=O)NC56CC(C5)C6)cn34)cc(S(C)(=O)=O)c2C1=O (single isomer, unassigned) [Example 29b, trifluoroacetate salt]",≥ 6.30,≥ 7.00,> 6.00
"CC(c1ccccc1)N1Cc2cc(-c3cnc4c(N)ncnn34)ccc2C1=O (racemic) [Example 12, 5-(4-Aminoimidazo[2,1-f][1,2,4]triazin-7-yl)-2-(1-phenylethyl)isoindolin-1-one, trifluoroacetate salt]",≥ 6.30,≥ 7.00,≤ 6.00
"C[C@@H](C1CC1)N1Cc2cc(-c3cnc4c(N)nc(C(=O)N5CC(C)(C)C5)cn34)cc(S(C)(=O)=O)c2C1=O [Example 29c, (S)-5-(8-Amino-6-(3,3-dimethylazetidine-1-carbonyl)imidazo[1,2-a]pyrazin-3-yl)-2-(1-cyclopropylethyl)-7-(methylsulfonyl)isoindolin-1-one, trifluoroacetate salt]",≥ 6.30,≥ 7.00,> 6.00
"C[C@@H](C1CC1)N1Cc2cc(-c3cnc4c(N)nc(C(=O)N5CCC5)cn34)cc(S(C)(=O)=O)c2C1=O [Example 29a, (S)-5-(8-Amino-6-(azetidine-1-carbonyl)imidazo[1,2-a]pyrazin-3-yl)-2-(1-cyclopropylethyl)-7-(methylsulfonyl)isoindolin-1-one, trifluoroacetate salt]",> 5.70,≥ 7.00,≤ 6.00
"C[C@@H](C1CC1)N1Cc2cc(-c3cnc4c(N)nc(C(=O)N5CC(F)(F)C5)cn34)cc(S(C)(=O)=O)c2C1=O [Example 29d, (S)-5-(8-Amino-6-(3,3-difluoroazetidine-1-carbonyl)imidazo[1,2-a]pyrazin-3-yl)-2-(1-cyclopropylethyl)-7-(methylsulfonyl)isoindolin-1-one, trifluoroacetate salt]",≥ 6.30,≥ 7.00,> 6.00
"C[C@@H](C1CC1)N1Cc2cc(-c3cnc4c(N)nc(C(=O)NC5CCOCC5O)cn34)ccc2C1=O (mixture of isomers) [Example 32, 8-Amino-3-(2-((S)-1-cyclopropylethyl)-1-oxoisoindolin-5-yl)-N-(3-hydroxytetrahydro-2H-pyran-4-yl)imidazo[1,2-a]pyrazine-6-carboxamide, trifluoroacetate salt]",≤ 5.70,≥ 7.00,≤ 6.00
"C[C@@H](C1CC1)N1Cc2cc(-c3cnc4c(N)ncnn34)cc(C(C)(C)O)c2C1=O [Example 17, (S)-5-(4-Aminoimidazo[2,1-f][1,2,4]triazin-7-yl)-2-(1-cyclopropylethyl)-7-(2-hydroxypropan-2-yl)isoindolin-1-one trifluoroacetate salt]",> 5.70,≥ 7.00,> 6.00
"C[C@@H](C1CC1)N1Cc2cc(-c3cnc4c(N)ncnn34)ccc2C1=O [Example 6, (S)-5-(4-Aminoimidazo[2,1-f][1,2,4]triazin-7-yl)-2-(1-cyclopropylethyl)isoindolin-1-one]",≤ 5.70,≥ 7.00,≤ 6.00
"CC(O)c1cc(-c2cnc3c(N)ncnn23)cc2c1C(=O)N([C@@H](C)C1CC1)C2 (mixture of isomers) [Example 16, 5-(4-Aminoimidazo[2,1-f][1,2,4]triazin-7-yl)-2-((S)-1-cyclopropylethyl)-7-(1-hydroxyethyl)isoindolin-1-one trifluoroacetate salt]",≥ 6.30,≥ 7.00,≤ 6.00
